“And” between values parts separate entries of the source, which are not always exact repeats. Equal entries are not always repeated. Inconclusive results and toxic doses are left out.
Test system: BDF1 mice, P388 leukemia ip, median survival T/C
Test: NCI In Vivo Anticancer Drug Screen. Data for tumor model P388 Leukemia (intraperitoneal) in B6D2F1 (BDF1) mice
Details: endpoint: median survival time, higher = longer survival
Summary of the method: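 T/C = treated-group survival ÷ vehicle-control survival; tumour transplanted into mice before dosing.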

[1] = dose: 50.0 mg/kg/injection, schedule: Q01DX009 (ip), vehicle: saline with Tween-80
[2] = dose: 100.0 mg/kg/injection, schedule: Q01DX009 (ip), vehicle: saline with Tween-80
[3] = dose: 200.0 mg/kg/injection, schedule: Q01DX009 (ip), vehicle: saline with Tween-80
[4] = dose: 100.0 mg/kg/injection, schedule: Q04DX003 (ip), vehicle: saline
[5] = dose: 200.0 mg/kg/injection, schedule: Q04DX003 (ip), vehicle: saline
[6] = dose: 100.0 mg/kg/injection, schedule: Q04DX003 (ip), vehicle: saline sonified
[7] = dose: 200.0 mg/kg/injection, schedule: Q04DX003 (ip), vehicle: saline sonified
[8] = dose: 400.0 mg/kg/injection, schedule: Q04DX003 (ip), vehicle: saline sonified
[9] = dose: 100.0 mg/kg/injection, schedule: Q04DX003 (ip), vehicle: saline with Tween-80
[10] = dose: 200.0 mg/kg/injection, schedule: Q04DX003 (ip), vehicle: saline with Tween-80
[11] = dose: 400.0 mg/kg/injection, schedule: Q04DX003 (ip), vehicle: saline with Tween-80
[12] = dose: 400.0 mg/kg/injection, schedule: Q01DX009 (ip), vehicle: saline with Tween-80
[13] = dose: 25.0 mg/kg/injection, schedule: Q01DX009 (ip), vehicle: saline with Tween-80
[14] = dose: 25.0 mg/kg/injection, schedule: Q01DX009 (ip), vehicle: Klucel (hydroxypropylcellulose) (HPC)
[15] = dose: 50.0 mg/kg/injection, schedule: Q01DX009 (ip), vehicle: Klucel (hydroxypropylcellulose) (HPC)
[16] = dose: 200.0 mg/kg/injection, schedule: Q01DX009 (ip), vehicle: saline
[17] = dose: 12.5 mg/kg/injection, schedule: Q01DX009 (ip), vehicle: saline
[18] = dose: 12.5 mg/kg/injection, schedule: Q01DX009 (ip), vehicle: saline with Tween-80

In the case of `CC(CC(C)(C)C)C(=O)CCC(C)(C)C` (configuration not stated), the T/C (dose: 100.0 mg/kg/injection, schedule: Q01DX001 (ip), vehicle: saline with Tween-80) is reported as 104 % of control, the T/C (dose: 200.0 mg/kg/injection, schedule: Q01DX001 (ip), vehicle: saline with Tween-80) is reported as 100 % of control and the T/C (dose: 400.0 mg/kg/injection, schedule: Q01DX001 (ip), vehicle: saline with Tween-80) is reported as 109 % of control.
With `c1csc(NC(Nc2nccs2)C2CCCCC2)n1` the T/C [1] was 101 % of control, the T/C [2] was 96 % of control and the T/C [3] was 96 % of control.
In the case of `COC1C(CNC23CC4CC(CC(C4)C2)C3)OC2OC(C)(C)OC21` (configuration not stated), the T/C (dose: 25.0 mg/kg/injection, schedule: Q01DX005 (ip), vehicle: saline with Tween-80) is reported as 101 % of control, the T/C (dose: 50.0 mg/kg/injection, schedule: Q01DX005 (ip), vehicle: saline with Tween-80) is reported as 100 % of control and 113 % of control and the T/C (dose: 100.0 mg/kg/injection, schedule: Q01DX005 (ip), vehicle: saline with Tween-80) is reported as 99 % of control and 121 % of control. The T/C (dose: 200.0 mg/kg/injection, schedule: Q01DX005 (ip), vehicle: saline with Tween-80) was 105 % of control and 115 % of control.
With `CN(C)C(CCc1ccccc1)C(=O)O` (configuration not stated) the T/C [4] was 100 % of control and the T/C [5] was 104 % of control.
For `CCn1cnc2c(SC3CCCC3)ncnc21`, the T/C [6] was 100 % of control, the T/C [7] was 100 % of control and the T/C [8] was 100 % of control.
For `CCCC(=O)OCc1ccccn1`, the T/C [1] was 107 % of control, the T/C [2] was 102 % of control and the T/C [3] was 86 % of control.
`O=C1CC(c2ccc([N+](=O)[O-])cc2)=Nc2ccccc2N1` was tested, and the T/C [9] was 109 % of control, the T/C [10] was 104 % of control and the T/C [11] was 114 % of control.
In the case of `O=C(c1cccs1)c1cccs1`, the T/C [1] is reported as 101 % of control, the T/C [2] is reported as 108 % of control and the T/C [9] is reported as 102 % of control. The T/C [3] was 92 % of control, the T/C [10] was 90 % of control and the T/C [12] was 99 % of control. The T/C [11] was 112 % of control.
For `C=CCN(CC=C)c1ncnc2[nH]ncc12`, the T/C [13] was 100 % of control, the T/C [1] was 100 % of control and the T/C [2] was 109 % of control.
In the case of `CCS(=O)(=O)C(Br)CBr` (configuration not stated), the T/C [14] is reported as 114 % of control, the T/C [15] is reported as 114 % of control and the T/C (dose: 100.0 mg/kg/injection, schedule: Q01DX009 (ip), vehicle: Klucel (hydroxypropylcellulose) (HPC)) is reported as 105 % of control and 107 % of control.
In the case of `Nc1nc(N)c2cc([N+](=O)[O-])ccc2n1`, the T/C [1] is reported as 96 % of control, the T/C [2] is reported as 101 % of control and the T/C [3] is reported as 99 % of control. For the same compound, the T/C [12] was 95 % of control.
`Cc1cccc(NC(=S)N(C)C)c1` was tested, and the T/C [9] was 95 % of control, the T/C [10] was 100 % of control and the T/C [11] was 100 % of control.
`CN(C)C1Cc2ccccc2C1OC(=O)c1ccccc1` (configuration not stated) was tested, and the T/C (dose: 50.0 mg/kg/injection, schedule: Q01DX009 (ip), vehicle: saline) was 103 % of control and the T/C [16] was 91 % of control.
With `CC(C)C(C=O)C(O)(C(F)(F)F)C(F)(F)Cl` (configuration not stated) the T/C [17] was 95 % of control and the T/C (dose: 25.0 mg/kg/injection, schedule: Q01DX009 (ip), vehicle: saline) was 100 % of control.
`O=[N+]([O-])c1ccc(N=Nc2c(Cl)cc(O)cc2Cl)cc1` was tested, and the T/C (dose: 3.13 mg/kg/injection, schedule: Q01DX009 (ip), vehicle: saline with Tween-80) was 95 % of control, the T/C (dose: 6.25 mg/kg/injection, schedule: Q01DX009 (ip), vehicle: Klucel (hydroxypropylcellulose) (HPC)) was 115 % of control and the T/C (dose: 6.25 mg/kg/injection, schedule: Q01DX009 (ip), vehicle: saline with Tween-80) was 95 % of control. For the same compound, the T/C (dose: 12.5 mg/kg/injection, schedule: Q01DX009 (ip), vehicle: Klucel (hydroxypropylcellulose) (HPC)) was 110 % of control, the T/C [18] was 95 % of control and the T/C [14] was 115 % of control. For the same compound, the T/C (dose: 35.0 mg/kg/injection, schedule: Q01DX009 (ip), vehicle: Klucel (hydroxypropylcellulose) (HPC)) was 94 % of control, the T/C [15] was 97 % of control and the T/C (dose: 75.0 mg/kg/injection, schedule: Q01DX009 (ip), vehicle: Klucel (hydroxypropylcellulose) (HPC)) was 118 % of control. For the same compound, the T/C [2] was 120 % of control, the T/C [6] was 100 % of control and the T/C [7] was 100 % of control. The T/C [8] was 100 % of control.
`CCSc1ncnc2nc[nH]c12` was tested, and the T/C (dose: 100.0 mg/kg/injection, schedule: Q04DX003 (ip), vehicle: Klucel (hydroxypropylcellulose) (HPC)) was 104 % of control and the T/C (dose: 200.0 mg/kg/injection, schedule: Q04DX003 (ip), vehicle: Klucel (hydroxypropylcellulose) (HPC)) was 109 % of control.
With `O=C1CCC(=O)N1CCC(=O)N(C(=O)NC1CCCCC1)C1CCCCC1` the T/C [18] was 100 % of control, the T/C [13] was 101 % of control and the T/C [1] was 104 % of control and 111 % of control. The T/C [2] was 101 % of control, the T/C [9] was 118 % of control and the T/C [3] was 100 % of control and 123 % of control. For the same compound, the T/C [10] was 118 % of control, the T/C [12] was 111 % of control and the T/C [11] was 113 % of control.
`CCC(C#N)C1=CCCCCC1` (configuration not stated) was tested, and the T/C (dose: 25.0 mg/kg/injection, schedule: Q04DX003 (ip), vehicle: saline with Tween-80) was 109 % of control, the T/C (dose: 50.0 mg/kg/injection, schedule: Q04DX003 (ip), vehicle: saline with Tween-80) was 121 % of control and the T/C [9] was 118 % of control.
For `COCCOC(C)C(=O)C(O)S(=O)(=O)O` (configuration not stated), the T/C (dose: 132.0 mg/kg/injection, schedule: Q01DX009 (ip), vehicle: saline) was 150 % of control, the T/C [16] was 155 % of control and the T/C (dose: 300.0 mg/kg/injection, schedule: Q01DX009 (ip), vehicle: saline) was 155 % of control.
With `Cc1ccc(NCc2cccc3ccccc23)c(C)c1` the T/C [4] was 91 % of control, the T/C [5] was 100 % of control and the T/C (dose: 400.0 mg/kg/injection, schedule: Q04DX003 (ip), vehicle: saline) was 95 % of control.
In the case of `C[C@]12CC[C@H]3[C@@H](CCC4=CC(=O)CC[C@@H]43)[C@@H]1CC[C@@H]2OC(=O)CCc1ccccc1`, the T/C [2] is reported as 100 % of control, the T/C [9] is reported as 86 % of control and the T/C [3] is reported as 100 % of control. For the same compound, the T/C [12] was 90 % of control and the T/C [11] was 86 % of control.
For `CN(C)C(CC(=O)c1ccccc1)C(=O)O` (configuration not stated), the T/C (dose: 50.0 mg/kg/injection, schedule: Q04DX003 (ip), vehicle: saline sonified) was 104 % of control.
In the case of `CC/C(=C(/CC)c1ccc(O)cc1)c1ccc(O)cc1`, the T/C (dose: 12.5 mg/kg/injection, schedule: Q01DX009 (ip), vehicle: carboxymethylcellulose (CMC)) is reported as 105 % of control, the T/C (dose: 12.5 mg/kg/injection, schedule: Q01DX010 (ip), vehicle: saline) is reported as 100 % of control and 110 % of control and the T/C (dose: 25.0 mg/kg/injection, schedule: Q01DX009 (ip), vehicle: carboxymethylcellulose (CMC)) is reported as 89 % of control and 93 % of control. The T/C (dose: 25.0 mg/kg/injection, schedule: Q01DX010 (ip), vehicle: saline) was 110 % of control, the T/C (dose: 50.0 mg/kg/injection, schedule: Q01DX008 (ip), vehicle: saline with Tween-80) was 114 % of control and 120 % of control and the T/C (dose: 50.0 mg/kg/injection, schedule: Q01DX009 (ip), vehicle: carboxymethylcellulose (CMC)) was 97 % of control. The T/C (dose: 50.0 mg/kg/injection, schedule: Q01DX010 (ip), vehicle: saline) was 100 % of control and 115 % of control, the T/C (dose: 100.0 mg/kg/injection, schedule: Q01DX008 (ip), vehicle: saline with Tween-80) was 110 % of control and 116 % of control and the T/C (dose: 100.0 mg/kg/injection, schedule: Q01DX009 (ip), vehicle: carboxymethylcellulose (CMC)) was 88 % of control and 90 % of control. The T/C (dose: 100.0 mg/kg/injection, schedule: Q01DX010 (ip), vehicle: saline) was 90 % of control and 95 % of control, the T/C (dose: 200.0 mg/kg/injection, schedule: Q01DX008 (ip), vehicle: saline with Tween-80) was 111 % of control and 112 % of control and the T/C (dose: 200.0 mg/kg/injection, schedule: Q01DX009 (ip), vehicle: carboxymethylcellulose (CMC)) was 114 % of control. For the same compound, the T/C (dose: 400.0 mg/kg/injection, schedule: Q01DX008 (ip), vehicle: saline with Tween-80) was 112 % of control.
With `CCOC(=O)CC(=O)N/N=C(/C)C(=O)OCC` the T/C [2] was 108 % of control, the T/C [9] was 88 % of control and the T/C [3] was 99 % of control. For the same compound, the T/C [10] was 97 % of control and the T/C [11] was 111 % of control.
In the case of `Nc1cc(N)cc([N+](=O)[O-])c1`, the T/C (dose: 6.25 mg/kg/injection, schedule: Q01DX009 (ip), vehicle: saline) is reported as 90 % of control, the T/C (dose: 6.25 mg/kg/injection, schedule: Q04DX003 (ip), vehicle: saline) is reported as 100 % of control and the T/C [17] is reported as 86 % of control. For the same compound, the T/C (dose: 12.5 mg/kg/injection, schedule: Q04DX003 (ip), vehicle: saline) was 104 % of control and the T/C (dose: 25.0 mg/kg/injection, schedule: Q04DX003 (ip), vehicle: saline) was 100 % of control.
